Source: patent US10576085B2, “Substituted aminopurine compounds, compositions thereof, and methods of treatment therewith” (Signal Pharmaceuticals, LLC, priority 2016, dated 2020)

Legend:
[1] = system: cancer cell lines of Table 2; assay: Multiplexed cytotoxicity assay: cell proliferation (relative cell count IC50, GI50); type: cell-based
Description: Cells are grown in RPMI1640, 10% FBS, 2 mM L-alanyl-L-Glutamine, 1 mM Na pyruvate or a special medium in a humidified atmosphere of 5% CO2 at 37° C. Cells are seeded into 384-well plates and incubated in a humidified atmosphere of 5% CO2 at 37° C. Compounds are added 24 h post cell seeding. At the same time, a time zero untreated cell plate is generated. After a 72 hour incubation period, cells are fixed and stained with fluorescently labeled antibodies and nuclear dye to allow visualization of nuclei, apoptotic cells and mitotic cells. Apoptotic cells are detected using an anti-active caspase-3 antibody. Mitotic cells are detected using an anti phospho-histone-3 antibody. Compounds are serially diluted 3.16-fold and assayed over 10 concentrations in a final assay concentration of 0.1% DMSO from the highest test concentration of 10 μM. Automated fluorescence microscopy was carried out using a Molecular Devices ImageXpress Micro XL high-content imager, and images are collected with a 4× objective.
Sixteen-bit TIFF images are acquired and analyzed with MetaXpress 5.1.0.41 software. Cell proliferation is measured by the signal intensity of the incorporated nuclear dye. The cell proliferation assay output is referred to as the relative cell count. To determine the cell proliferation end point, the cell proliferation data output is transformed to percentage of control (POC) using the following formula: POC=relative cell count(compound wells)/relative cell count(vehicle wells)×100
GI50 is the concentration needed to reduce the observed growth by half. This is the concentration that inhibits the growth to the level midway between growth in untreated cells and the number of cells seeded in the well (Time zero value). The IC50 values are calculated using nonlinear regression to fit data to a sigmoidal 4 point, 4 parameter One-Site dose response model, where: y(fit)=A+[(B−A)/(1+((C/x)^D))].
In Another Experiment, Cells were Grown in RPMI1640, 10% FBS, 2 mM L-alanyl-L-Glutamine, 1 mM Na pyruvate or a special medium in a humidified atmosphere of 5% CO2 at 37° C. Cells were seeded into 384-well plates and incubated in a humidified atmosphere of 5% CO2 at 37° C. Compounds were added 24 h post cell seeding. At the same time, a time zero untreated cell plate was generated. After a 72 hour incubation period, cells were fixed and stained with fluorescently labeled antibodies and nuclear dye to allow visualization of nuclei, apoptotic cells and mitotic cells. Apoptotic cells were detected using an anti-active caspase-3 antibody. Mitotic cells were detected using an anti phospho-histone-3 antibody. Compounds were serially diluted 3.16-fold and assayed over 10 concentrations in a final assay concentration of 0.1% DMSO from the highest test concentration of 10 μM. Automated fluorescence microscopy was carried out using a Molecular Devices ImageXpress Micro XL high-content imager, and images were collected with a 4× objective.
Sixteen-bit TIFF images were acquired and analyzed with MetaXpress 5.1.0.41 software. Cell proliferation was measured by the signal intensity of the incorporated nuclear dye. The cell proliferation assay output was referred to as the relative cell count. To determine the cell proliferation end point, the cell proliferation data output was transformed to percentage of control (POC) using the following formula: POC=relative cell count(compound wells)/relative cell count(vehicle wells)×100
GI50 refers to the concentration needed to reduce the observed growth by half. This corresponds to the concentration that inhibits the growth to the level midway between growth in untreated cells and the number of cells seeded in the well (Time zero value). The IC50 values were calculated using nonlinear regression to fit data to a sigmoidal 4 point, 4 parameter One-Site dose response model, where: y(fit)=A+[(B−A)/(1+((C/x)^D))].

ERK 1/2 = assay: Known kinases inhibited (no method given); type: biochemical
[2] = Homo sapiens, A204, A204, Soft Tissue, Sarcoma
[3] = Homo sapiens, A704, A704, Kidney
[4] = Homo sapiens, ARH-77, ARH77, Myeloma
[5] = Homo sapiens, BT-474, BT474, Breast
[6] = Homo sapiens, BT-549, BT549, Breast
[7] = Homo sapiens, C-4-II, C4II, Female GU, Cervix
[8] = Homo sapiens, CCF-STTG1, CCFSTTG1, CNS, Glioma
[9] = Homo sapiens, CFPAC-1, CFPAC1, Pancreas
[10] = Homo sapiens, ChaGo-K-1, CHAGOK1, Lung, NSCLC
[11] = Homo sapiens, K562, K562, Leukemia
[12] = Homo sapiens, ME-180, ME180, Female GU, Ovary
[13] = Homo sapiens, NALM-6, NALM6, Leukemia
[14] = Homo sapiens, NCI-H295R, NCIH295R, Endocrine, Adrenal gland
[15] = Homo sapiens, NCI-H460, NCIH460, Lung, NSCLC
[16] = Homo sapiens, OVCAR-3, OVCAR3, Female GU, Ovary
[17] = Homo sapiens, SK-NEP-1, SKNEP1, Kidney
[18] = Homo sapiens, SK-UT-1, SKUT1, Soft Tissue, Sarcoma
[19] = Homo sapiens, SNU-16, SNU16, Stomach
[20] = Homo sapiens, SiHa, Female GU, Cervix
[21] = Homo sapiens, T98G, CNS, Glioma
[22] = KHOS-240S, KHOS240S, Soft Tissue, Osteosarcoma

C[C@]1(C(N)=O)CC[C@@H](n2c(Nc3c(Cl)cc(Cl)cc3Cl)nc3cnc(N[C@@H]4CCOC[C@H]4F)nc32)CC1 [Compound 1, cis-4-[2-{[(3S,4R)-3-fluorooxan-4-yl]amino}-8-(2,4,6-trichloroanilino)-9H-purin-9-yl]-1-methyl cyclohexane-1-carboxamide]
anti-proliferative activity: Anti-proliferative activity ([1]; variety of cancer cell lines (Table 3))
10 µM: GI50 ([1]; BC1, Lymphoma) | IC50 ([1]; BC1, Lymphoma) | GI50 ([1]; C4I, Female GU, Cervix) | IC50 ([1]; C4I, Female GU, Cervix) | GI50 ([1]; CEM/C1, CEMC1, Leukemia) | IC50 ([1]; CEM/C1, CEMC1, Leukemia) | IC50 ([1]; CML-T1, CMLT1, Leukemia) | IC50 ([1]; DB, Lymphoma) | IC50 ([1]; HS229T, Lung, NSCLC) | IC50 ([1]; HS688AT, Skin, Melanoma) | IC50 ([1]; HS729, Soft Tissue, Sarcoma) | IC50 ([1]; HS821T, Soft Tissue, Sarcoma) | IC50 ([1]; HS888SK, Soft Tissue, Osteosarcoma) | GI50 ([1]; HS895T, Skin, Melanoma) | IC50 ([1]; HS895T, Skin, Melanoma) | IC50 ([1]; HS934T, Skin, Melanoma) | IC50 ([1]; HT, Lymphoma) | GI50 [1, 2] | IC50 [1, 2] | IC50 ([1]; Homo sapiens, A253, A253, Head and Neck) | GI50 [1, 3] | IC50 [1, 3] | GI50 [1, 4] | IC50 [1, 4] | IC50 ([1]; Homo sapiens, ASPC1, ASPC1, Pancreas) | IC50 ([1]; Homo sapiens, BT-20, BT20, Breast) | GI50 [1, 5] | IC50 [1, 5] | GI50 [1, 6] | IC50 [1, 6] | IC50 ([1]; Homo sapiens, BV-173, BV173, Leukemia) | GI50 [1, 7] | IC50 [1, 7] | IC50 ([1]; Homo sapiens, CAPAN-1, CAPAN1, Pancreas) | GI50 [1, 8] | IC50 [1, 8] | GI50 [1, 9] | IC50 [1, 9] | IC50 ([1]; Homo sapiens, COLO 320DM, COLO320DM, Colon) | IC50 ([1]; Homo sapiens, Ca-Ski, CASKI, Female GU, Ovary) | IC50 ([1]; Homo sapiens, Caov-3, CAOV3, Female GU, Ovary) | GI50 [1, 10] | IC50 [1, 10] | IC50 ([1]; Homo sapiens, DMS-53, DMS53, Lung, SCLC) | IC50 ([1]; Homo sapiens, Daudi, Lymphoma) | IC50 ([1]; Homo sapiens, Detroit 562, DETROIT562, Head and Neck) | IC50 ([1]; Homo sapiens, EFM-19, EFM19, Breast) | IC50 ([1]; Homo sapiens, HT1197, HT1197, Bladder) | GI50 [1, 11] | IC50 [1, 11] | IC50 ([1]; Homo sapiens, MDA-MB-415, MDAMB415, Breast) | IC50 ([1]; Homo sapiens, MDA-MB-436, MDAMB436, Breast) | GI50 [1, 12] | IC50 [1, 12] | GI50 [1, 13] | IC50 [1, 13] | IC50 ([1]; Homo sapiens, NCI-H69, NCIH69, Lung, SCLC) | GI50 [1, 14] | IC50 [1, 14] | IC50 ([1]; Homo sapiens, NCI-H446, NCIH446, Lung, SCLC) | GI50 [1, 15] | IC50 [1, 15] | IC50 ([1]; Homo sapiens, NCI-H596, NCIH596, Lung, NSCLC) | IC50 ([1]; Homo sapiens, OE19, OE19, Head and Neck, Esophageal) | GI50 [1, 16] | IC50 [1, 16] | IC50 ([1]; Homo sapiens, PFSK-1, PFSK1, CNS, Glioma) | IC50 ([1]; Homo sapiens, Raji, Lymphoma) | IC50 ([1]; Homo sapiens, SK-N-DZ, SKNDZ, CNS, Neuroblastoma) | GI50 [1, 17] | IC50 [1, 17] | IC50 ([1]; Homo sapiens, SK-OV-3, SKOV3, Female GU, Ovary) | GI50 [1, 18] | IC50 [1, 18] | GI50 [1, 19] | IC50 [1, 19] | GI50 [1, 20] | IC50 [1, 20] | GI50 ([1]; Homo sapiens, T47D, Breast) | IC50 ([1]; Homo sapiens, T47D, Breast) | GI50 [1, 21] | IC50 [1, 21] | IC50 ([1]; Homo sapiens, U138-MG, U138MG, CNS, Glioma) | IC50 ([1]; Homo sapiens, U-118-MG, U118MG, CNS, Glioma) | GI50 ([1]; J82, Bladder) | IC50 ([1]; J82, Bladder) | GI50 [1, 22] | IC50 [1, 22] | GI50 ([1]; KLE, Female GU, Uterus) | IC50 ([1]; KLE, Female GU, Uterus) | GI50 ([1]; KPL-1, KPL1, Breast) | IC50 ([1]; KPL-1, KPL1, Breast) | IC50 ([1]; SKPNDW, Stomach) | IC50 ([1]; TE125T, Soft Tissue, Sarcoma) | IC50 ([1]; TT, Endocrine, Thyroid) | GI50 ([1]; Y79, Eye-retinoblastoma) | IC50 ([1]; Y79, Eye-retinoblastoma)
inhibited: Kinase inhibition (ERK 1/2)
